Laboratory results reported in patent US7579356B2, “Thia-tetraazaacenaphthylene kinase inhibitors” (Janssen Pharmaceutica NV, priority 2005, dated 2009).

Legend:
Type in all cases: biochemical
EGFR = target: T1, EGFR (Homo sapiens, UniProt P00533); experiment: EGFR Kinase Assay; details: for IC50: GST-EGFR, ATP 5 μM; for inhibition at 2 µM: test concentration of 2 μM, compounds without an IC50, read-out: EGFR inhibition in percent
T1 construct: The intracellular portion of EGFR started at nucleotide 2189 (corresponding to amino acid 667) and ended at the termination codon; made in house; host or cells: Sf9 insect cells (baculovirus)
How it was run: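 GST-fused human EGFR intracellular domain (from aa 667), Sf9-expressed, phosphorylated biotinylated polyGluTyr with 5 μM ATP plus γ-33P ATP in Tris pH 8.0, MgCl2, vanadate, 1 mM DTT, 1 h at 30 °C. Streptavidin Flashplate scintillation read; triplicate 16-point half-log series from 200 uM; IC50 from % inhibition vs log concentration, else % inhibition at 2 μM.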

c-Src kinase (human) = target: T2, c-Src kinase (human) (Homo sapiens, UniProt P12931); experiment: c-Src Kinase Assay; details: test concentration of 2 μM; multiple values are separate assay results
T2 construct: purchased Upstate Biotechnology, Lake Placid, N.Y
How it was run: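 Inhibition was read as 33P incorporation, counted on P30 filtermats, after a 40 min, 30° C reaction. Human c-Src acted on 100 μM Cdc2 peptide with 5 μM ATP (final), pH 7.0 MOPS/MgCl2. Values are percent inhibition at 2 μM compound, or IC50 where determined.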

HER-2 = target: T3, HER-2 (Homo sapiens, UniProt P04626); experiment: HER-2 Kinase Assay; details: for inhibition at 1 µM: test concentration of 1 μM; for IC50: value in parentheses
T3 construct: His6 with thrombin site (N); purchased Proqinase (Freiburg, Germany)
How it was run: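 GST/HIS6-tagged HER-2 aa 679–1255 kinase with biotinylated polyGluTyr (1.5 ng/μL), 1 μM ATP plus γ-33P-ATP, Mg2+/Mn2+, DTT, Hepes pH 7.5; 1 h at 30 °C. Substrate phosphorylation captured on streptavidin scintillation plates after EDTA/PBS washes; values are % inhibition at 1 μM or IC50.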

Lyn kinase (human) = target: T4, Lyn kinase (human) (Homo sapiens, UniProt P07948); experiment: Lyn Kinase Assay; details: test concentration of 2 μM
T4 construct: purchased Upstate Biotechnology, Lake Placid, N.Y
How it was run: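 Radiometric filter-binding assay with recombinant human Lyn, poly(Glu,Tyr) substrate (0.1 mg/mL final), 5 μM ATP plus γ-33P-ATP in MOPS pH 7.5/Mg acetate buffer; 40 min at 30 °C, stopped with phosphoric acid, counted by scintillation. Reported as percent inhibition at 2 μM, with IC50 (μM) where determined.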

T3 sequence (P04626 679-1255): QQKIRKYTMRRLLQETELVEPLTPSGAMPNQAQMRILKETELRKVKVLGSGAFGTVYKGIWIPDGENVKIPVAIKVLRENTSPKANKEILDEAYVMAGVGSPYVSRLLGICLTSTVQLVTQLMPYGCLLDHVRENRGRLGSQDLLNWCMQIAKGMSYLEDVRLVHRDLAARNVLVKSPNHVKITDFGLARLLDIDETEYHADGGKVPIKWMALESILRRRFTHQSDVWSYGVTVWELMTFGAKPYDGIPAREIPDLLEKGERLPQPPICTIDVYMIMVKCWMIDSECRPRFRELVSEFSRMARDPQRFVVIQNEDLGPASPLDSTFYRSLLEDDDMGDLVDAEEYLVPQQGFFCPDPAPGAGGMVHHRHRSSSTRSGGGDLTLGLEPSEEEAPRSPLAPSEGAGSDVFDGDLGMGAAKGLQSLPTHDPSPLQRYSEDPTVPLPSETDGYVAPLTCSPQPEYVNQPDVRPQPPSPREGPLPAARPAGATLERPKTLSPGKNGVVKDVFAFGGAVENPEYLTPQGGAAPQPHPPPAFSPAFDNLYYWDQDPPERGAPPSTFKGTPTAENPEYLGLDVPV
T4 sequence (P07948 whole entry): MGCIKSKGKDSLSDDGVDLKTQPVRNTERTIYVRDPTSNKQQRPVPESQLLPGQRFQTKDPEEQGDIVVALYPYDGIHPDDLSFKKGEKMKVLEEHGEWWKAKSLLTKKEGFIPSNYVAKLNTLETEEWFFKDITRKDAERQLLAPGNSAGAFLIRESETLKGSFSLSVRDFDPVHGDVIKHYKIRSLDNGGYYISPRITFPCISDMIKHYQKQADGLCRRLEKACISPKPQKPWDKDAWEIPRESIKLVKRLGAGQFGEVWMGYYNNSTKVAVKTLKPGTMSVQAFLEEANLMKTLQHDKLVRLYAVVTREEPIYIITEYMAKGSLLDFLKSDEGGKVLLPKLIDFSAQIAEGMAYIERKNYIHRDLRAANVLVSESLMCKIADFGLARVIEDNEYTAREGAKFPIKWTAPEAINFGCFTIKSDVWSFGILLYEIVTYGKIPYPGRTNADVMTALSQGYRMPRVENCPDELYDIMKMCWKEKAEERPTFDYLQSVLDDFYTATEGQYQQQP
T2 sequence (P12931 whole entry): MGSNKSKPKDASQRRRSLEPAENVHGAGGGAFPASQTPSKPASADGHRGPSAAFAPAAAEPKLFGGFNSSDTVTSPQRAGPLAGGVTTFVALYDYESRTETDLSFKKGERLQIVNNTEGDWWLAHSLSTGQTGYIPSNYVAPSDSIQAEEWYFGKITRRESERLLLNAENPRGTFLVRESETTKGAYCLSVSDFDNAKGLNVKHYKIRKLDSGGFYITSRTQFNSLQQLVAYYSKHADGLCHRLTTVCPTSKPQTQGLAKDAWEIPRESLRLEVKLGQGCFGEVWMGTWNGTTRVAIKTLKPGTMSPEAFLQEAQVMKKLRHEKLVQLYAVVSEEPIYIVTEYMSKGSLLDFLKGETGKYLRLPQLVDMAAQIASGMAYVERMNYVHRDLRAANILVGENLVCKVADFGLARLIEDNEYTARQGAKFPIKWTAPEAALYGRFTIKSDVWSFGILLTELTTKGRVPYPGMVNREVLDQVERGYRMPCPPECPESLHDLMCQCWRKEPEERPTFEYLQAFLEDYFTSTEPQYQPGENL
T1 sequence (P00533 669-1210 limits assumed): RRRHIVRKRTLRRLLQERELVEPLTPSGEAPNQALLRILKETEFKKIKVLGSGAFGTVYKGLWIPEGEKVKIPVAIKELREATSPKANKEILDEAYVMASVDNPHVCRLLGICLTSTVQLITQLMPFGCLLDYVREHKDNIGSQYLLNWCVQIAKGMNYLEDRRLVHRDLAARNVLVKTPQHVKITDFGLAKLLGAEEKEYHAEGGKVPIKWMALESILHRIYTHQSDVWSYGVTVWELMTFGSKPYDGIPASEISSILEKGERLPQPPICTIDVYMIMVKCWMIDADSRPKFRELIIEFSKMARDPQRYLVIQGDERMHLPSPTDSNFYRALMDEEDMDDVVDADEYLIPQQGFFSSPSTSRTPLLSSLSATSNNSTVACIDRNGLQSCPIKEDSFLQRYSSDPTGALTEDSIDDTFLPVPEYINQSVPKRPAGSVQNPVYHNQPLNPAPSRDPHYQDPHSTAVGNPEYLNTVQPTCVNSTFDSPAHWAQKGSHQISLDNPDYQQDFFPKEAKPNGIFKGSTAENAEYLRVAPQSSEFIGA

SMILES	IC50 (EGFR) [nM]	inhibition at 2 µM (c-Src kinase (human)) [%]	inhibition at 1 µM (HER-2) [%]	IC50 (HER-2) [nM]	inhibition at 2 µM (Lyn kinase (human)) [%]	inhibition at 2 µM (EGFR) [%]
O=C(NCCCO)c1sc2ncnc3c2c1NC(=O)N3c1ccc(Oc2cccc(F)c2)cc1 [Cpd 133, 5-[4-(3-fluoro-phenoxy)-phenyl]-4-oxo-4,5-dihydro-3H-1-thia-3,5,6,8-tetraaza-acenaphthylene-2-carboxylic acid (3-hydroxy-propyl)-amide]	34	16	0	> 10000	20	
O=C(NCCCO)c1sc2ncnc3c2c1NC(=O)N3c1ccc(Oc2ccccc2)c(Cl)c1 [Cpd 137, 5-(3-chloro-4-phenoxy-phenyl)-4-oxo-4,5-dihydro-3H-1-thia-3,5,6,8-tetraaza-acenaphthylene-2-carboxylic acid (3-hydroxy-propyl)-amide]	30	26	48	1630	43	
O=C(Nc1ccc(CN2CCOCC2)cc1)c1sc2ncnc3c2c1NC(=O)N3c1ccc(-c2ccc(Cl)cc2)cc1 [Cpd 140, 5-(4′-chloro-biphenyl-4-yl)-4-oxo-4,5-dihydro-3H-1-thia-3,5,6,8-tetraaza-acenaphthylene-2-carboxylic acid (4-morpholin-4-ylmethyl-phenyl)-amide]		25		> 100000	43	20
NCCCNC(=O)c1sc2ncnc3c2c1NC(=O)N3c1ccc2c(ccn2Cc2cccc(F)c2)c1 [Cpd 142, 5-[1-(3-fluoro-benzyl)-1H-indol-5-yl]-4-oxo-4,5-dihydro-3H-1-thia-3,5,6,8-tetraaza-acenaphthylene-2-carboxylic acid (3-amino-propyl)-amide]	11	10		381	39	
COc1cc(NC(=O)c2sc3ncnc4c3c2NC(=O)N4c2ccc(F)cc2Cl)ccc1OCCN1CCCCC1 [Cpd 144, 5-(2-chloro-4-fluoro-phenyl)-4-oxo-4,5-dihydro-3H-1-thia-3,5,6,8-tetraaza-acenaphthylene-2-carboxylic acid [3-methoxy-4-(2-piperidin-1-yl-ethoxy)-phenyl]-amide]	330	67	18		84	
Cc1cccc(Cl)c1N1C(=O)Nc2c(C(=O)Nc3ccc(CN4CCOCC4)cc3)sc3ncnc1c23 [Cpd 146, 5-(2-chloro-6-methyl-phenyl)-4-oxo-4,5-dihydro-3H-1-thia-3,5,6,8-tetraaza-acenaphthylene-2-carboxylic acid (4-morpholin-4-ylmethyl-phenyl)-amide]		45	21		65	37
Cc1cccc(Cl)c1N1C(=O)Nc2c(C(=O)Nc3ccc(C(O)CN4CCOCC4)cc3)sc3ncnc1c23 (stereo not drawn) [Cpd 148, 5-(2-chloro-6-methyl-phenyl)-4-oxo-4,5-dihydro-3H-1-thia-3,5,6,8-tetraaza-acenaphthylene-2-carboxylic acid [4-(1-hydroxy-2-morpholin-4-yl-ethyl)-phenyl]-amide]		53	30		59	38
O=C(Nc1ccc(CN2CCOCC2)cc1)c1sc2ncnc3c2c1NC(=O)N3c1ccccc1Cl [Cpd 149, 5-(2-chloro-phenyl)-4-oxo-4,5-dihydro-3H-1-thia-3,5,6,8-tetraaza-acenaphthylene-2-carboxylic acid (4-morpholin-4-ylmethyl-phenyl)-amide]	187	54	53	2540	72	

Now from value to molecule:

IC50 (EGFR) [nM]	inhibition at 2 µM (c-Src kinase (human)) [%]	inhibition at 1 µM (HER-2) [%]	IC50 (HER-2) [nM]	inhibition at 2 µM (Lyn kinase (human)) [%]	inhibition at 2 µM (EGFR) [%]	SMILES
10	36	91	84	41		O=C(Nc1ccc(CN2CCCCC2)cc1)c1sc2ncnc3c2c1NC(=O)N3c1ccc(Oc2cccc(F)c2)cc1 [Cpd 131, 5-[4-(3-fluoro-phenoxy)-phenyl]-4-oxo-4,5-dihydro-3H-1-thia-3,5,6,8-tetraaza-acenaphthylene-2-carboxylic acid (4-piperidin-1-ylmethyl-phenyl)-amide]
15	32	76	495	33		O=C(Nc1ccc(CCN2CCCCC2)cc1)c1sc2ncnc3c2c1NC(=O)N3c1ccc(Oc2cccc(F)c2)cc1 [Cpd 132, 5-[4-(3-fluoro-phenoxy)-phenyl]-4-oxo-4,5-dihydro-3H-1-thia-3,5,6,8-tetraaza-acenaphthylene-2-carboxylic acid [4-(2-piperidin-1-yl-ethyl)-phenyl]-amide]
21	49	35	87	48		O=C(Nc1ccc(CN2CCOCC2)cc1)c1sc2ncnc3c2c1NC(=O)N3c1ccc(Oc2cccc(F)c2)cc1 [Cpd 134, 5-[4-(3-fluoro-phenoxy)-phenyl]-4-oxo-4,5-dihydro-3H-1-thia-3,5,6,8-tetraaza-acenaphthylene-2-carboxylic acid (4-morpholin-4-ylmethyl-phenyl)-amide]
18	12	85	90	46		O=C(Nc1ccc(CN2CCCCC2)cc1)c1sc2ncnc3c2c1NC(=O)N3c1ccc(Oc2ccccc2)c(Cl)c1 [Cpd 135, 5-(3-chloro-4-phenoxy-phenyl)-4-oxo-4,5-dihydro-3H-1-thia-3,5,6,8-tetraaza-acenaphthylene-2-carboxylic acid (4-piperidin-1-ylmethyl-phenyl)-amide]
31	-41	70	222	43		O=C(Nc1ccc(CCN2CCCCC2)cc1)c1sc2ncnc3c2c1NC(=O)N3c1ccc(Oc2ccccc2)c(Cl)c1 [Cpd 136, 5-(3-chloro-4-phenoxy-phenyl)-4-oxo-4,5-dihydro-3H-1-thia-3,5,6,8-tetraaza-acenaphthylene-2-carboxylic acid [4-(2-piperidin-1-yl-ethyl)-phenyl]-amide]
59	39		178	50		O=C(Nc1ccc(CN2CCOCC2)cc1)c1sc2ncnc3c2c1NC(=O)N3c1ccc(Oc2ccccc2)c(Cl)c1 [Cpd 138, 5-(3-chloro-4-phenoxy-phenyl)-4-oxo-4,5-dihydro-3H-1-thia-3,5,6,8-tetraaza-acenaphthylene-2-carboxylic acid (4-morpholin-4-ylmethyl-phenyl)-amide]
	28		> 100000	34	18	O=C(Nc1ccc(CN2CCCCC2)cc1)c1sc2ncnc3c2c1NC(=O)N3c1ccc(-c2ccc(Cl)cc2)cc1 [Cpd 139, 5-(4′-chloro-biphenyl-4-yl)-4-oxo-4,5-dihydro-3H-1-thia-3,5,6,8-tetraaza-acenaphthylene-2-carboxylic acid (4-piperidin-1-ylmethyl-phenyl)-amide]
166	50	54	4230	83		O=C(Nc1ccc(CN2CCCCC2)cc1)c1sc2ncnc3c2c1NC(=O)N3c1ccc(F)cc1Cl [Cpd 145, 5-(2-chloro-4-fluoro-phenyl)-4-oxo-4,5-dihydro-3H-1-thia-3,5,6,8-tetraaza-acenaphthylene-2-carboxylic acid (4-piperidin-1-ylmethyl-phenyl)-amide]
	61	17		76	43	Cc1cccc(Cl)c1N1C(=O)Nc2c(C(=O)Nc3ccc(CN4CCCCC4)cc3)sc3ncnc1c23 [Cpd 147, 5-(2-chloro-6-methyl-phenyl)-4-oxo-4,5-dihydro-3H-1-thia-3,5,6,8-tetraaza-acenaphthylene-2-carboxylic acid (4-piperidin-1-ylmethyl-phenyl)-amide]
170	52	18		77		O=C(Nc1ccc(CN2CCCCC2)cc1)c1sc2ncnc3c2c1NC(=O)N3c1ccccc1Cl [Cpd 150, 5-(2-chloro-phenyl)-4-oxo-4,5-dihydro-3H-1-thia-3,5,6,8-tetraaza-acenaphthylene-2-carboxylic acid (4-piperidin-1-ylmethyl-phenyl)-amide]
